Results on 21 compounds are retold here after PubChem BioAssay (NCI).

Several values for one entry are separate records, joined by “and”; a condition that tells them apart may be missing. Equal values may be shown once.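 Cells were grown in 96-well plates and exposed to each compound for 48 hours at five concentrations; endpoints were interpolated linearly between bracketing concentrations, or set to the highest concentration if not reached. GI50 = concentration required for 50% inhibition of growth. The concentration for full growth arrest is given as TGI.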

Test systems include HOP-92 NSCLC; SF-268 CNS; SN12C renal; IGROV1 ovarian; OVCAR-3 ovarian; COLO 205 colon; NCI-H23 lung; MDA-N; NCI-H460 lung; HL-60(TB) leukemia.
Common to all, as to assay: inhibition of tumour cell growth, NCI panel, 48 h

Regarding `C/C(N=Nc1nc2ccccc2s1)=C1/C=CC=CN1O`, the TGI with HOP-92 NSCLC is 60.9 µM; with SF-268 CNS, above 100 µM; in the assay with SN12C renal, above 100 µM; in the assay on IGROV1 ovarian, above 100 µM; with OVCAR-3 ovarian, 71.2 µM; in the assay on COLO 205 colon it was above 100 µM. In addition, the TGI in the assay with NCI-H23 lung, in the assay with MDA-N and in the assay with NCI-H460 lung was above 100 µM each time.

As to `COc1ccc(CC(CO)NC(=O)OCc2ccccc2)cc1Oc1ccc(CC(CO)NC(=O)OCc2ccccc2)cc1` (centres undefined), the TGI was 46.1 µM with HOP-92 NSCLC; 29.4 µM in the assay on SF-268 CNS; 39.3 µM in the assay on SN12C renal; 29.3 µM in the assay on IGROV1 ovarian; 27.4 µM in the assay with OVCAR-3 ovarian; 64.9 µM in the assay on COLO 205 colon. For the same compound, the TGI in the assay on NCI-H23 lung is 33.8 µM; in the assay with MDA-N it was 54.1 µM; in the assay with NCI-H460 lung it was 66.6 µM.

Take `CCCCCCCCCC[C@H](O)[C@H]1CC[C@H]([C@H]2CC[C@H]([C@H](O)CC[C@H](O)CCCCCCC[C@@H](O)CC3=C[C@H](C)OC3=O)O2)O1`: the GI50 was above 100 µM in the assay with HOP-92 NSCLC, above 100 µM in the assay on SF-268 CNS and 6.36 µM in the assay with MDA-N. Further, the TGI with HOP-92 NSCLC was above 100 µM; with SF-268 CNS, above 100 µM; in the assay on SN12C renal, above 100 µM; with IGROV1 ovarian, above 100 µM; in the assay on OVCAR-3 ovarian, above 100 µM; in the assay on COLO 205 colon, 78.5 µM. Also, the TGI in the assay on NCI-H23 lung, with MDA-N and with NCI-H460 lung was above 100 µM in each case.

For `CCCCOC(C)(C)/C=C/C(O)[C@](C)(O)[C@H]1[C@H](O)C[C@@]2(C)[C@@H]3CCc4c(cc(OC5OC(CO)C(O)C(O)C5O)c(O)c4C)C3(C)C(=O)C[C@]12C` (some centres undefined), the TGI in the assay on HOP-92 NSCLC, in the assay on SF-268 CNS, in the assay with SN12C renal, with IGROV1 ovarian, in the assay on OVCAR-3 ovarian and in the assay on COLO 205 colon was above 100 µM each time. The TGI in the assay on NCI-H23 lung, in the assay on MDA-N and in the assay on NCI-H460 lung was above 100 µM throughout.

As to `N#Cc1c(-c2ccccc2)/c(=C\Nc2ccc(Cl)cc2)c(=O)n2c1nc1ccccc12`, the TGI in the assay on SF-268 CNS, in the assay on SN12C renal, in the assay on IGROV1 ovarian, in the assay on OVCAR-3 ovarian, in the assay with COLO 205 colon and in the assay with NCI-H23 lung was above 100 µM throughout. Further, the TGI in the assay on MDA-N and with NCI-H460 lung was above 100 µM in each case.

For the compound `CCC[C@H]1C(=O)N=C(N)N1C(=O)OCc1ccccc1`, the TGI in the assay with HL-60(TB) leukemia, with SF-268 CNS, with SN12C renal, in the assay on IGROV1 ovarian, with OVCAR-3 ovarian and in the assay on COLO 205 colon was above 100 µM throughout. Moreover, the TGI in the assay on NCI-H23 lung, in the assay with MDA-N and in the assay with NCI-H460 lung was above 100 µM each time.

Consider `COc1ccc(N[C@H](CSc2ccc(C)cc2)c2ccc(F)cc2)cc1`, for which the TGI in the assay on SF-268 CNS, with SN12C renal, in the assay on IGROV1 ovarian, in the assay with OVCAR-3 ovarian, in the assay on COLO 205 colon and in the assay with NCI-H23 lung was above 100 µM in each case. Besides, the TGI in the assay with MDA-N and in the assay on NCI-H460 lung was above 100 µM each time.

With `O=c1cc(/C=C/c2ccc(O)c(O)c2)oc(/C=C/c2ccc(O)c(O)c2)c1`, the TGI in the assay on HOP-92 NSCLC is 8.78 µM; with SF-268 CNS it was 13.2 µM; with SN12C renal, 16 µM; in the assay on IGROV1 ovarian it was 16.6 µM; in the assay with OVCAR-3 ovarian, 10.8 µM; in the assay on COLO 205 colon, 21.6 µM. The results for the TGI in the assay on NCI-H23 lung, in the assay with MDA-N and in the assay on NCI-H460 lung were 25.1 µM, 16.6 µM and 21.2 µM, respectively.

With `CC(=O)NS(=O)(=O)c1ccc(NC(=O)c2c3ccccc3nc3ccccc23)cc1`, the TGI in the assay on HOP-92 NSCLC, with SF-268 CNS, in the assay on SN12C renal, in the assay on IGROV1 ovarian, in the assay on OVCAR-3 ovarian and with COLO 205 colon was above 100 µM in each case. Further, the TGI with NCI-H23 lung, in the assay on MDA-N and in the assay on NCI-H460 lung was above 100 µM in each case.

For the compound `COc1ccc2c(c1)O/C(=C\c1cccc(OCC(=O)Nc3nc4c(s3)CCCC4)c1)C2=O`, the GI50 was 3.68 µM in the assay on HOP-92 NSCLC; 3.32 µM with HL-60(TB) leukemia; 5.33 µM with SF-268 CNS; 4.78 µM with SN12C renal; 0.692 µM in the assay with IGROV1 ovarian; 2.98 µM with OVCAR-3 ovarian. The GI50 with COLO 205 colon is above 100 µM; with NCI-H23 lung it was 5.52 µM; in the assay on NCI-H460 lung, above 100 µM. The TGI is 18.5 µM with HOP-92 NSCLC; 18.5 µM with HL-60(TB) leukemia; 12.3 µM with SF-268 CNS; above 100 µM in the assay with SN12C renal; 2.17 µM with IGROV1 ovarian; 7.63 µM in the assay on OVCAR-3 ovarian. In addition, the TGI with COLO 205 colon, with NCI-H23 lung and in the assay with NCI-H460 lung was above 100 µM each time.

`C/C(=C\c1ccccc1)C(=O)CCN1CCOCC1`: the TGI with HOP-92 NSCLC is 37.1 µM; with HL-60(TB) leukemia, above 74.3 µM; in the assay with SF-268 CNS it was above 85.6 µM; in the assay with SN12C renal, 32.8 µM; in the assay with IGROV1 ovarian, above 61.9 µM; in the assay with OVCAR-3 ovarian it was 34.2 µM. For the same compound, the TGI in the assay on COLO 205 colon was 31 µM; with NCI-H23 lung it was 32 µM; with NCI-H460 lung, above 100 µM.

With `C/C(=N/NC(N)=S)c1ccc2ccccc2c1`, the TGI in the assay on HOP-92 NSCLC, in the assay on HL-60(TB) leukemia, in the assay with SF-268 CNS, in the assay with SN12C renal, in the assay with IGROV1 ovarian and in the assay on OVCAR-3 ovarian was above 100 µM throughout. For the same compound, the TGI is 41.9 µM with COLO 205 colon, above 100 µM with NCI-H23 lung and 78.1 µM in the assay on NCI-H460 lung.

On to `CSC1CC2C(CC1(C)O)C2(C)C` (centres undefined), for which the GI50 was 25.5 µM and > 100 µM in the assay on HOP-92 NSCLC; 19 µM and > 100 µM with HL-60(TB) leukemia; 38.5 µM and > 100 µM in the assay on OVCAR-3 ovarian. Moreover, the TGI is above 100 µM in the assay on HOP-92 NSCLC; 70.5 µM and > 100 µM in the assay on HL-60(TB) leukemia; above 100 µM in the assay with SF-268 CNS; above 100 µM in the assay with SN12C renal; above 100 µM with IGROV1 ovarian; above 100 µM in the assay with OVCAR-3 ovarian. Further, the TGI with COLO 205 colon, with NCI-H23 lung and with NCI-H460 lung was above 100 µM throughout.

For `CCOC(=O)C1=C(C(C)=O)CSC(c2ccccc2)=N1`, the TGI in the assay on HOP-92 NSCLC, with HL-60(TB) leukemia, in the assay with SF-268 CNS, in the assay with SN12C renal, in the assay with IGROV1 ovarian and with OVCAR-3 ovarian was above 100 µM in each case. Further, the TGI in the assay on COLO 205 colon, in the assay with NCI-H23 lung and in the assay with NCI-H460 lung was above 100 µM throughout.

Turning to `Cc1cc2c(C)cc(=O)[nH]c2cc1N`, the TGI in the assay with HOP-92 NSCLC, in the assay on SN12C renal, in the assay on IGROV1 ovarian, with OVCAR-3 ovarian, in the assay with COLO 205 colon and with NCI-H23 lung was above 100 µM in each case. Besides, the TGI in the assay with MDA-N and in the assay with NCI-H460 lung was above 100 µM each time.

On to `CCC(C(=O)O)c1ccc(OCc2ccccc2)cc1` (centres undefined), for which the TGI in the assay on HOP-92 NSCLC, with HL-60(TB) leukemia, with SF-268 CNS, in the assay with SN12C renal, in the assay with IGROV1 ovarian and in the assay on OVCAR-3 ovarian was above 100 µM in each case. Besides, the TGI in the assay with COLO 205 colon, with NCI-H23 lung and in the assay with NCI-H460 lung was above 100 µM each time.

For `Nn1c(CCCCCCCCc2nnc(COc3c(O)ccc4ccccc34)n2N)nnc1COc1c(O)ccc2ccccc12`, the TGI in the assay on HOP-92 NSCLC, in the assay on SF-268 CNS, in the assay with SN12C renal, in the assay on IGROV1 ovarian, with COLO 205 colon and with NCI-H23 lung was above 100 µM throughout. Besides, the TGI in the assay with MDA-N and in the assay on NCI-H460 lung was above 100 µM in each case.

`COc1ccc(-c2cc(=O)c3cc4c(cc3[nH]2)OCO4)c(OC)c1OC`: the TGI in the assay on HOP-92 NSCLC, in the assay with HL-60(TB) leukemia, in the assay with SF-268 CNS, in the assay on SN12C renal, in the assay with IGROV1 ovarian and in the assay on OVCAR-3 ovarian was above 100 µM each time. Also, the TGI in the assay with COLO 205 colon, with NCI-H23 lung and in the assay on NCI-H460 lung was above 100 µM throughout.

On to `CCN(CC)CCNc1ccc2nnn3c4ccc(OC)cc4c(=O)c1c23`, for which the TGI in the assay with HOP-92 NSCLC turned out to be 19.5 µM; in the assay with HL-60(TB) leukemia, 22.3 µM; with SF-268 CNS it was 20.6 µM; in the assay on SN12C renal, 19.9 µM; in the assay with IGROV1 ovarian, 22.9 µM; in the assay on OVCAR-3 ovarian, 31.4 µM. The TGI was determined as 20.4 µM with COLO 205 colon, 20.9 µM in the assay with NCI-H23 lung and 13.3 µM in the assay with NCI-H460 lung.

Regarding `CCCCn1c2c(n(CCCC)c1=S)-c1c(n(CCCC)c(=S)n1CCCC)S[Se][Se]S2`, the TGI was 9.51 µM in the assay with HOP-92 NSCLC; above 83.4 µM in the assay on SF-268 CNS; 99.1 µM in the assay on SN12C renal; 9.16 µM with IGROV1 ovarian; 7.84 µM in the assay on OVCAR-3 ovarian; 3.87 µM in the assay on COLO 205 colon. In addition, the TGI with NCI-H23 lung was 41.5 µM; in the assay with MDA-N, 36.3 µM; in the assay on NCI-H460 lung, above 80 µM.

Consider `COc1cc(OCc2ccc3oc(=O)c(-c4ccccc4)nc3c2)cc(OC)c1OC`, for which the TGI in the assay on SF-268 CNS, in the assay with SN12C renal, with IGROV1 ovarian, in the assay with OVCAR-3 ovarian, in the assay on COLO 205 colon and in the assay on NCI-H23 lung was above 100 µM in each case. Moreover, the TGI with MDA-N and in the assay with NCI-H460 lung was above 100 µM each time.
